The structures appear in SMILES notation.

The conditions of series [1]: blends, accelerated storage conditions.
The conditions of series [2]: fumarate salt, crystalline powder; cited from earlier work.

With `OCCOCCN1CCN(C2=Nc3ccccc3Sc3ccccc32)CC1` [Quetiapine, 11-[4-[2-(2-hydroxyethoxy)ethyl]-1-piperazinyl]dibenzo[b,f][1,4]thiazepine], in series [1], the “compatibility with tartaric acid” value was “significant compatibility problems”. In series [2], the solubility in water entry was “moderately soluble in water”.

(Values after US20150231080A1, “PHARMACEUTICAL COMPOSITION COMPRISING AN ATYPICAL ANTIPSYCHOTIC AGENT AND METHOD FOR THE PREPARATION THEREOF” (PHARMATHEN S.A., priority 2012, published 2015).)
